The record followed here is ChEMBL document CHEMBL3639365, “Substituted aniline derivatives” (2014).

A word on the IC50: it is the concentration that inhibits the measured activity by half. A lower IC50 goes with inhibition by little substance.

Each structure is given as a SMILES string.

The target of assay [1] is 1,3-beta-glucan synthase (Aspergillus, UniProt Q4WLT4). Kind of assay: (§1) Glucan Synthase Assay: The glucan synthase assay follows the incorporation of tritiated UDP-glucose into acid insoluble β-glucan as catalysed by the glucan synthase activity present in membrane preparations from Candida albicans and Aspergillus fumigatus. UDP-[3H]-glucose (ca 0.01 μCi) is added to 100 μl assay buffer (50 mM Tris-Cl, pH8.0, 8% glycerol, 1 mM EDTA, 1.5 mM KF, 1 mM DTT, 20 μM GTPγS, 600 μM UDP-glucose) and the reaction initiated by the addition of 2.5 μl of enzyme preparation. After incubation at 30°C. for 120 minutes, 10 μl of 30 mg/ml BSA is added with mixing and the reaction is terminated with 110 μl ice-cold 20% TCA. The precipitate is collected on a GF/B filter plate and washed three times with 200 μl water. Once dry, 200 μl of Microscint20 is added to each well and the plate is read on a Top-count scintillation counter.
Chain of 1,3-beta-glucan synthase (Aspergillus, UniProt Q4WLT4) (Q4WLT4 whole entry): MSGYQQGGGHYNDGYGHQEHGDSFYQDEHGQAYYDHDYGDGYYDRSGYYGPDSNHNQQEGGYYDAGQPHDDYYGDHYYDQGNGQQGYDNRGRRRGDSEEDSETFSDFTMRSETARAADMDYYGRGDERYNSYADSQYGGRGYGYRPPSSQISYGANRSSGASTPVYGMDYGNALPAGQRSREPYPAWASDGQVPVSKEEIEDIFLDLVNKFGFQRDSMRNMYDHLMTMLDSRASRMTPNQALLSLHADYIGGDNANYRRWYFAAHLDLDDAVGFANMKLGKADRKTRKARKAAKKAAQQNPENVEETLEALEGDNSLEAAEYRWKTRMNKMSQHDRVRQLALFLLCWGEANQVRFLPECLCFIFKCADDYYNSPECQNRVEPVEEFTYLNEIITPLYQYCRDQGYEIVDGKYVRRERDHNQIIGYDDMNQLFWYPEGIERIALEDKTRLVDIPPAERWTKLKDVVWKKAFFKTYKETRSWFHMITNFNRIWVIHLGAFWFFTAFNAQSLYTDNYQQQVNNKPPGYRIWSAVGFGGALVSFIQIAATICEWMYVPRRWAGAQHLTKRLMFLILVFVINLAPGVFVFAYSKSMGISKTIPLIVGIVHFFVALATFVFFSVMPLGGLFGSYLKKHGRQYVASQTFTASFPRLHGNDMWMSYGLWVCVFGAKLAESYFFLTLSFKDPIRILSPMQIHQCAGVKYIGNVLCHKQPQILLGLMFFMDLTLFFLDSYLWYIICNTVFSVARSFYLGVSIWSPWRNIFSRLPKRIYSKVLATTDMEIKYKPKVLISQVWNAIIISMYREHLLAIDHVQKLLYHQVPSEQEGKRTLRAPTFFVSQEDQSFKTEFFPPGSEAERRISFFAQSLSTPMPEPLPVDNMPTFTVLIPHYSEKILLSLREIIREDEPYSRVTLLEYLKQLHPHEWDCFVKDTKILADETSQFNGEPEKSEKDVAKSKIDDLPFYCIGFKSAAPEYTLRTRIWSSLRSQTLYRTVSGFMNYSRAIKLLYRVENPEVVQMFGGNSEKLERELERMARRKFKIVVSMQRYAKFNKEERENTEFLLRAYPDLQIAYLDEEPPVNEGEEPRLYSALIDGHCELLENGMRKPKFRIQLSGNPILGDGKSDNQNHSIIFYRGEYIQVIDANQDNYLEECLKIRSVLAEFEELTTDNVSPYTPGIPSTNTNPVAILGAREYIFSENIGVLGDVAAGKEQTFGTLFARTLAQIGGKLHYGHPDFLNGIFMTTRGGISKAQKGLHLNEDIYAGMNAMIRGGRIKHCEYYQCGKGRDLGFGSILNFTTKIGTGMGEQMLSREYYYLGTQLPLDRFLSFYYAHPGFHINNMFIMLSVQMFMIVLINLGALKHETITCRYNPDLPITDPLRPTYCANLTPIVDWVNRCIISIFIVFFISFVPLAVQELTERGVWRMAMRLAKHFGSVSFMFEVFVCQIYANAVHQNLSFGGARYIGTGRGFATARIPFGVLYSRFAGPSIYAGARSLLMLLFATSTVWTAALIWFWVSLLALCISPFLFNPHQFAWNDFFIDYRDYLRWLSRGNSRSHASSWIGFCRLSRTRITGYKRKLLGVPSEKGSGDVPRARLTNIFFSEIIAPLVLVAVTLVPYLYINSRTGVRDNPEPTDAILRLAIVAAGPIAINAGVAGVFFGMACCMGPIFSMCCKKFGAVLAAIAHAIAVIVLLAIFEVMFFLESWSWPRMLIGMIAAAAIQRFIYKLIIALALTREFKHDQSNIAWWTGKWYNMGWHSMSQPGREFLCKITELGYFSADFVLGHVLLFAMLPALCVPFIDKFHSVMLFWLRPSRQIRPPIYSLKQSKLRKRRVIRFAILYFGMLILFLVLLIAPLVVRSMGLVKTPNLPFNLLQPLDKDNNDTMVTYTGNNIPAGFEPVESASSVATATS

For assay [2], the target named is 1,3-beta-glucan synthase (Candida, UniProt O13428). The assay is described as §1.
Chain of 1,3-beta-glucan synthase (Candida, UniProt O13428) (O13428 whole entry): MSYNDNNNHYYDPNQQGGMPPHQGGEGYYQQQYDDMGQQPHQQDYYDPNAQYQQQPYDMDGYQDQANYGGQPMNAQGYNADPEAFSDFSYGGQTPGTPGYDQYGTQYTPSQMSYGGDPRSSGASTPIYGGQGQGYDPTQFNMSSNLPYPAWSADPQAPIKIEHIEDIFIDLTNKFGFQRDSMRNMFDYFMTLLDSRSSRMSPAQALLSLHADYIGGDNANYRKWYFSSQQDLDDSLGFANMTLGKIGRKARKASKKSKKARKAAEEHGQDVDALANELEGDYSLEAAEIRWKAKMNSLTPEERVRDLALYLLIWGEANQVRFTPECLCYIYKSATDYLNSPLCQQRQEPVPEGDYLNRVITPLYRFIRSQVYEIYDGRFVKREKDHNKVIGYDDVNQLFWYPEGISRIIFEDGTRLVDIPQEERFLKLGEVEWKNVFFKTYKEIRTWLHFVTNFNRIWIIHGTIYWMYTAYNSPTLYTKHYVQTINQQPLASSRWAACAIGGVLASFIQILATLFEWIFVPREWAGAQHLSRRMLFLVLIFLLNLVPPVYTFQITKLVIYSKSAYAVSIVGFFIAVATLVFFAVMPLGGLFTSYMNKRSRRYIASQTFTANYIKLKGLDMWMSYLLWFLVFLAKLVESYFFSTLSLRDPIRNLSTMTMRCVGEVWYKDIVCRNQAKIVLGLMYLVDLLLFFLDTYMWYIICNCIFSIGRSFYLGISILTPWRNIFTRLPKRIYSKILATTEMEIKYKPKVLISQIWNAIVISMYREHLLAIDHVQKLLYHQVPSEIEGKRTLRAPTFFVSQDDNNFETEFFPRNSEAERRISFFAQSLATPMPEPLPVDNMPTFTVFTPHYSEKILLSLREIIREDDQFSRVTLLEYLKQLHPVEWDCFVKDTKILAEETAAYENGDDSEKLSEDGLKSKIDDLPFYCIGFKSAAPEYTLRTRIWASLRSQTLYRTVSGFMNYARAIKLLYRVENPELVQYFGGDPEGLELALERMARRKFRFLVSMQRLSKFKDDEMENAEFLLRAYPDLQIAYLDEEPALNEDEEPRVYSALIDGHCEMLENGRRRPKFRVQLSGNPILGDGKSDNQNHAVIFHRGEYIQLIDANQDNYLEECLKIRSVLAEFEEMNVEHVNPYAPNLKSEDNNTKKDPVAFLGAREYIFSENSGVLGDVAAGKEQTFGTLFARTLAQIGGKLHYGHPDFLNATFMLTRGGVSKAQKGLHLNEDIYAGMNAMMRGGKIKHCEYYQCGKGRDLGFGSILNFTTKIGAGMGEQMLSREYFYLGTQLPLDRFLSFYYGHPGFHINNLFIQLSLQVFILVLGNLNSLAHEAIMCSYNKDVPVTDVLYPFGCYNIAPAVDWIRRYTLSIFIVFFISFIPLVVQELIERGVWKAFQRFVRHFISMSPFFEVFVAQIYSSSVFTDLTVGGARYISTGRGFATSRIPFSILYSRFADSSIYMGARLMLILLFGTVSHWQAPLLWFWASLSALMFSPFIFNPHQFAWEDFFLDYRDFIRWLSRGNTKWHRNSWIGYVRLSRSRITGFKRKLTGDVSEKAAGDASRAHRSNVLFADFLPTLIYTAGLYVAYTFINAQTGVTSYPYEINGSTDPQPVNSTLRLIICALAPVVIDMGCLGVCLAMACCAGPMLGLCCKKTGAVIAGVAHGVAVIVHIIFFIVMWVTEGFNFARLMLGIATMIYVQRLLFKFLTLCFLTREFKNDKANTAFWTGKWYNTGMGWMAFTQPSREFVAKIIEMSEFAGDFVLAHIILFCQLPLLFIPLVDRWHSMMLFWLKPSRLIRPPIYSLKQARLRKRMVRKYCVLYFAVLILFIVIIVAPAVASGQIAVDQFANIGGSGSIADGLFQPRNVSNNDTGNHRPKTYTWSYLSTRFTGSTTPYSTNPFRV

For the compound `N[C@H]1CCN(C(=O)CN(CC(=O)NCc2cccc(Cl)c2)c2ccc(Oc3ccccc3)cc2)C1`, the results for the IC50 against 1,3-beta-glucan synthase [1] and on 1,3-beta-glucan synthase [2] were 5.6 µM and 8 µM, respectively.
